Test system: RNA isoforms in PNN 1-46 SMA type I patient-derived fibroblasts
Assay: RNA Abundance Modulation (RNA isoform abundance, iFPM, HiSeq RNA sequencing)
Format: cell-based, human
Conditions: 3 μM
Procedure: Cells from a cell line of interest are cultured in conditions sufficient to yield the number of cells capable of generating enough RNA for subsequent sequencing steps. Cells from the tested cell line are contacted with a compound described herein.
To culture said cells, they are seeded, at appropriate concentrations in a volume of media in a cell culture container and incubated for 4, 5, 6, 7, 8, 9, 10, or more hours. A concentrated solution of compound in a vehicle (e.g., DMSO) is then added in sufficient volume to result in the intended final concentration of the compound, for example 100 nM, 500 nM, 1 μM, 5 μM, 10 μM, 15 μM, 20 μM, or more. The cells may also be treated with vehicle alone, as a control. A number of replicates of each concentration or control may be made (e.g., 2 replicates). The cells are then incubated at a constant temperature appropriate for cell culture of the particular cell line (e.g., 37° C.) for 6, 12, 18, 24, 48, or more hours. After incubation, the growth medium is removed and the cells are washed with the appropriate buffer (e.g., PBS). Cells are then removed from adherence to the cell culture container by treatment with a solution containing trypsin, and the trypsin subsequently quenched with the appropriate volume of buffer (e.g., DMEM-FBS). The cells are then pelleted with gentle centrifugation (e.g., ≤90×g centrifugal force) and resuspended in a buffer to lyse the cells for extraction of RNA. The cell lysates may then be frozen (e.g., at −80° C.) or, alternately, may immediately be used in a procedure to purify the RNA (e.g. by use of the RNEASY PLUS® minikit). The RNA from cell lysates is eluted in the appropriate volume of buffer (e.g., RNEASE-FREE H2O®). The resulting purified RNA may then be sequenced (e.g., using RNASeq) or analyzed using a human exon array (e.g., by GENECHIP® human exon array) to determine changes in the RNA levels in those cells treated with compound compared to those cells treated only with DMSO. The purified RNA may also be quantified by other methods known in the art.
Using the RNA data obtained from sequencing, exon array, or other methods, a statistical analysis can reveal changes in the RNA levels of compound-treated compared with control. For example, t-test p-values may be calculated for the data obtained through sequencing and exon array methods in order to compare compound-treated cells to those treated with the DMSO control. […] Analysis of the sequencing and exon array data may then also yield predictions about the cause of the aberrant amount of an RNA transcript in the cells (e.g., perturbation of RNA splicing, RNA transcription, or RNA stability). These predictions may be further confirmed by methods known in the art. For example, RT-PCR and RT-qPCR may be used to confirm the change in amount of RNA transcripts for one or more particular transcripts of interest.
Following the methods described above in Example 1, PNN 1-46 SMA type I patient-derived fibroblasts were treated with 300 nM or 3 μM Compounds 774 and 808 in 0.5% DMSO.
700,000 cells were seeded in 10 mL of medium (DMEM plus 10% FBS) in a T-75 flask. Cells were allowed to attach for at least 4 hrs, after which 50 μL of a 200× compound solution (100% DMSO) was added to each well, and the plate was incubated at 37° C. for 24 hrs.
At the end of the incubation period, the supernatant was removed and the cells where washed with PBS. TrypLE (Invitrogen) express solution was added (e.g. 1.5 mL per one T75 flask). The flasks were incubated for 3 to 5 min at 37° C. The trypsin was then quenched, e.g., by adding 10 mL DMEM-FBS.
Next, the cells were pelleted using gentle centrifugation without exceeding 90×g centrifugal force. The supernatant was removed and the cell pellet was re-suspended in 600 μL RLT buffer (the RLT buffer was supplemented with beta-mercaptoethanol according to the RNeasy protocol manual) by pipetting up and down until the pellet was completely dissolved […]

Compound: CCc1nc(C)cn2nc(-c3cc(=O)n4cc(C5CCN(C)CC5)cc(C)c4n3)cc12 [Compound 774]
- amp FC (x + 1) (U2SURP BC006474): 1.09
- ave Cpd (U2SURP BC006474): 1249 iFPM
- FC (x + 1) (U2SURP BC111692): 1.9191
- L2FC (x + 1) (U2SURP BC111692): 0.940
- L2abs (Cpd-DMSO) (U2SURP BC111692): 3.18
- abs (Cpd-DMSO) (U2SURP BC111692): 9 iFPM
- amp FC (x + 1) (U2SURP BC111692): 1.92
- ave Cpd (U2SURP BC111692): 18 iFPM
- FC (x + 1) (U2SURP NM_001080415): 2.2780
- L2FC (x + 1) (U2SURP NM_001080415): 1.188
- L2abs (Cpd-DMSO) (U2SURP NM_001080415): 7.79
- abs (Cpd-DMSO) (U2SURP NM_001080415): 222 iFPM
- amp FC (x + 1) (U2SURP NM_001080415): 2.28
- ave Cpd (U2SURP NM_001080415): 395 iFPM
- FC (x + 1) (UBAP2L AJ243668): 0.4506
- L2FC (x + 1) (UBAP2L AJ243668): −1.150
- L2abs (Cpd-DMSO) (UBAP2L AJ243668): 6.40
- abs (Cpd-DMSO) (UBAP2L AJ243668): 84 iFPM
- amp FC (x + 1) (UBAP2L AJ243668): 2.22
- ave Cpd (UBAP2L AJ243668): 68 iFPM
- FC (x + 1) (UBAP2L AJ243669): 0.2687
- L2FC (x + 1) (UBAP2L AJ243669): −1.896
- L2abs (Cpd-DMSO) (UBAP2L AJ243669): 6.45
- abs (Cpd-DMSO) (UBAP2L AJ243669): 88 iFPM
- amp FC (x + 1) (UBAP2L AJ243669): 3.72
- ave Cpd (UBAP2L AJ243669): 31 iFPM
- FC (x + 1) (UBAP2L AJ243670): 3.1873
- L2FC (x + 1) (UBAP2L AJ243670): 1.672
- L2abs (Cpd-DMSO) (UBAP2L AJ243670): 1.13
- abs (Cpd-DMSO) (UBAP2L AJ243670): 2 iFPM
- amp FC (x + 1) (UBAP2L AJ243670): 3.19
- ave Cpd (UBAP2L AJ243670): 2 iFPM
- FC (x + 1) (UBAP2L AK124294): 0.4670
- L2FC (x + 1) (UBAP2L AK124294): −1.099
- L2abs (Cpd-DMSO) (UBAP2L AK124294): 5.20
- abs (Cpd-DMSO) (UBAP2L AK124294): 37 iFPM
- amp FC (x + 1) (UBAP2L AK124294): 2.14
- ave Cpd (UBAP2L AK124294): 31 iFPM
- FC (x + 1) (UBAP2L AK302662): 0.2827
- L2FC (x + 1) (UBAP2L AK302662): −1.822
- L2abs (Cpd-DMSO) (UBAP2L AK302662): 8.14
- abs (Cpd-DMSO) (UBAP2L AK302662): 283 iFPM
- amp FC (x + 1) (UBAP2L AK302662): 3.54
- ave Cpd (UBAP2L AK302662): 110 iFPM
- FC (x + 1) (UBAP2L AK302953): 0.5118
- L2FC (x + 1) (UBAP2L AK302953): −0.966
- L2abs (Cpd-DMSO) (UBAP2L AK302953): 8.57
- abs (Cpd-DMSO) (UBAP2L AK302953): 381 iFPM
- amp FC (x + 1) (UBAP2L AK302953): 1.95
- ave Cpd (UBAP2L AK302953): 399 iFPM
- FC (x + 1) (UBAP2L AK303533): 0.0476
- L2FC (x + 1) (UBAP2L AK303533): −4.392
- L2abs (Cpd-DMSO) (UBAP2L AK303533): 4.32
- abs (Cpd-DMSO) (UBAP2L AK303533): 20 iFPM
- amp FC (x + 1) (UBAP2L AK303533): 20.99
- ave Cpd (UBAP2L AK303533): 0 iFPM
- FC (x + 1) (UBAP2L NM_014847): 0.3090
- L2FC (x + 1) (UBAP2L NM_014847): −1.695
- L2abs (Cpd-DMSO) (UBAP2L NM_014847): 10.25
- abs (Cpd-DMSO) (UBAP2L NM_014847): 1219 iFPM
- amp FC (x + 1) (UBAP2L NM_014847): 3.24
- ave Cpd (UBAP2L NM_014847): 544 iFPM
- FC (x + 1) (UBAP2L NM_001127320): 0.4857
- L2FC (x + 1) (UBAP2L NM_001127320): −1.042
- L2abs (Cpd-DMSO) (UBAP2L NM_001127320): 10.01
- abs (Cpd-DMSO) (UBAP2L NM_001127320): 1030 iFPM
- amp FC (x + 1) (UBAP2L NM_001127320): 2.06
- ave Cpd (UBAP2L NM_001127320): 972 iFPM
- FC (x + 1) (UBE2V1 NM_021988): 0.9186
- L2FC (x + 1) (UBE2V1 NM_021988): −0.122
- L2abs (Cpd-DMSO) (UBE2V1 NM_021988): 2.64
- abs (Cpd-DMSO) (UBE2V1 NM_021988): 6 iFPM
- amp FC (x + 1) (UBE2V1 NM_021988): 1.09
- ave Cpd (UBE2V1 NM_021988): 69 iFPM
- FC (x + 1) (UBE2V1 NM_022442): 0.2858
